Data on 26 compounds can be found in ChEMBL document CHEMBL3132784, “Synthesis and biological evaluation of new conformationally restricted S-DABO hybrids as non-nucleoside inhibitors of HIV-1 reverse transcriptase” (Medchemcomm, 2014).

Molecules are shown by their SMILES. Bounds are passed on as bounds.

The test system of series [1] is Human immunodeficiency virus 1. Kind of series: Antiviral activity against HIV-1 RES056 harboring RT K103N+Y181C double mutant infected in human MT4 cells assessed as protection against virus-induced cytopathic effect measured 5 days post-infection by MTT assay. To be noted: Human immunodeficiency virus 1, RES056, MT4, 120 h. It counts as functional, organism-based.

A short description of series [2]: Selectivity index, ratio of CC50 for human MT4 cells to EC50 for wild-type HIV-1 3B infected in human MT4 cells. It counts as toxicity, cell-based. The following applies: read-out: Ratio CC50/EC50.
In series [3] the test system is Human immunodeficiency virus 2. Kind of series: Antiviral activity against HIV-2 ROD infected in human MT4 cells assessed as protection against virus-induced cytopathic effect measured 5 days post-infection by MTT assay. It counts as functional, organism-based. The following applies: Human immunodeficiency virus 2, ROD, MT4, 120 h.
Series [4] can be described thus: Cytotoxicity against mock-infected human MT4 cells assessed as decrease in cell viability measured 5 days post-infection by MTT assay. It counts as cell-based.
Series [5] has as its system Human immunodeficiency virus 1. Kind of series: Antiviral activity against wild-type HIV-1 3B infected in human MT4 cells assessed as protection against virus-induced cytopathic effect measured 5 days post-infection by MTT assay. To be noted: Human immunodeficiency virus 1, 3B, MT4, 120 h. It counts as functional, organism-based.
Series [6] concerns the target Human immunodeficiency virus type 1 reverse transcriptase (Human immunodeficiency virus 1, UniProt Q72547). Kind of series: Inhibition of HIV-1 wild type recombinant reverse transcriptase p66/p51 assessed as RNA-DNA heteroduplex formation using poly(rA) template/oligo(dT)16 primer incubated prior to enzyme addition by spectrofluorometer analysis.

Regarding `COc1ccc(CSc2nc(C(C#N)c3cccc(F)c3)c(C)c(=O)[nH]2)cc1` (stereo not drawn), the 50% effective concentration (EC50) in series [1] is above 173 µM; in series [3], above 173 µM; in series [5], 29.1 µM. Moreover, in series [2], the selectivity ratio is 6. Moreover, the CC50 at 120 h in series [4] amounted to 173 µM.
For `COc1ccc(CSc2nc(C(C#N)c3ccc(F)cc3)c(C)c(=O)[nH]2)cc1` (stereo not drawn), the selectivity ratio in series [2] was below 1. The EC50 in series [3] and in series [5] was above 95.2 µM throughout. Besides, the CC50 at 120 h in series [4] amounted to 95.2 µM.
On to `COc1ccc(CSc2nc(C(C#N)c3ccccc3Cl)c(C)c(=O)[nH]2)cc1` (stereo not drawn), for which the EC50 in series [1] is above 116 µM; in series [3] it was above 116 µM; in series [5] it was 0.49 µM. For the same compound, the IC50 in series [6] amounted to 0.51 µM. The selectivity ratio in series [2] was found to be 239. In addition, in series [4], the CC50 at 120 h came to 116 µM.
As to `COc1ccc(CSc2nc(C(C#N)c3cccc(Cl)c3)c(C)c(=O)[nH]2)cc1` (stereo not drawn), the half-maximal effective concentration (EC50) in series [1] was above 161 µM; in series [3], above 161 µM; in series [5], 18 µM. Moreover, the selectivity ratio in series [2] came to 9. Further, the CC50 at 120 h in series [4] came to 161 µM.
In the case of `COc1ccc(CSc2nc(C(C#N)c3ccc(Cl)cc3)c(C)c(=O)[nH]2)cc1` (stereo not drawn), in series [2], the selectivity ratio is below 1. The EC50 in series [3] and in series [5] was above 28.9 µM each time. In addition, in series [4], the CC50 at 120 h turned out to be 28.9 µM.
As for `COc1ccc(CSc2nc(C(C#N)c3ccccc3Br)c(C)c(=O)[nH]2)cc1` (stereo not drawn), the EC50 in series [1] was above 86.7 µM; in series [3] it was above 86.7 µM; in series [5], 0.42 µM. The IC50 in series [6] came out at 1.55 µM. For the same compound, the selectivity ratio in series [2] turned out to be 208. Further, the CC50 at 120 h in series [4] is 86.7 µM.
With `COc1ccc(CSc2nc(C(C#N)c3cccc(Br)c3)c(C)c(=O)[nH]2)cc1` (stereo not drawn), the concentration giving a half-maximal response (EC50) was above 156 µM in series [1], above 156 µM in series [3] and 16.3 µM in series [5]. Besides, in series [2], the selectivity ratio was 10. In addition, in series [4], the CC50 at 120 h amounted to 156 µM.
In the case of `CCc1c(C(C#N)c2ccccc2F)nc(SCc2ccc(OC)cc2)[nH]c1=O` (stereo not drawn), the EC50 is above 109 µM in series [1], above 109 µM in series [3] and 1.66 µM in series [5]. Moreover, in series [2], the selectivity ratio stood at 66. The 50% cytotoxic concentration (CC50) at 120 h in series [4] came to 109 µM.
As to `CCc1c(C(C#N)c2cccc(F)c2)nc(SCc2ccc(OC)cc2)[nH]c1=O` (stereo not drawn), the EC50 in series [1] is above 173 µM; in series [3] it was above 173 µM; in series [5] it was 7.08 µM. In addition, the selectivity ratio in series [2] is 24. Also, in series [4], the CC50 at 120 h stood at 173 µM.
For `CCc1c(C(C#N)c2ccccc2Cl)nc(SCc2ccc(OC)cc2)[nH]c1=O` (stereo not drawn), the values for the EC50 in series [1], in series [3] and in series [5] were above 76.9 µM, above 76.9 µM and 1.34 µM, respectively. In addition, in series [2], the selectivity ratio was 57. Moreover, the CC50 at 120 h in series [4] was 76.9 µM.
Take `CCc1c(C(C#N)c2ccc(Br)cc2)nc(SCc2ccc(OC)cc2)[nH]c1=O` (stereo not drawn): the selectivity ratio in series [2] is below 1. Besides, the EC50 in series [3] and in series [5] was above 23.9 µM in each case. Also, the CC50 at 120 h in series [4] amounted to 23.9 µM.
Take `COc1ccc(CSc2nc(C(C#N)c3ccc(F)cc3)c(C(C)C)c(=O)[nH]2)cc1` (stereo not drawn): the EC50 in series [1] is above 137 µM; in series [3], above 137 µM; in series [5], 20.4 µM. The selectivity ratio in series [2] worked out at 7. In addition, in series [4], the half-maximal cytotoxic concentration (CC50) at 120 h is 137 µM.
In the case of `COc1ccc(CSc2nc(C(C#N)c3ccccc3Cl)c(C(C)C)c(=O)[nH]2)cc1` (stereo not drawn), the EC50 was above 27.4 µM in series [1], above 27.4 µM in series [3] and 3.91 µM in series [5]. In addition, in series [2], the selectivity ratio turned out to be 7. Moreover, the 50% cytotoxic concentration (CC50) at 120 h in series [4] was determined as 27.4 µM.
Consider `COc1ccc(CSc2nc(C(C#N)c3ccc(Cl)cc3)c(C(C)C)c(=O)[nH]2)cc1` (stereo not drawn), for which the EC50 in series [1] is above 85.2 µM; in series [3], above 85.2 µM; in series [5], above 40.7 µM. Moreover, the selectivity ratio in series [2] is at most 2. The CC50 at 120 h in series [4] is 85.2 µM.
In the case of `COc1ccc(CSc2nc(C(C#N)c3ccccc3Br)c(C(C)C)c(=O)[nH]2)cc1` (stereo not drawn), the EC50 in series [1] was above 26.7 µM; in series [3] it was above 26.7 µM; in series [5], 4.46 µM. Besides, the selectivity ratio in series [2] came to 6. The CC50 at 120 h in series [4] was 26.7 µM.
Regarding `COc1ccc(CSc2nc(C(C#N)c3cccc(Br)c3)c(C(C)C)c(=O)[nH]2)cc1` (stereo not drawn), the EC50 in series [1] was above 119 µM; in series [3], above 119 µM; in series [5], 5.72 µM. Further, the selectivity ratio in series [2] was found to be 21. Further, in series [4], the cytotoxic concentration (CC50) at 120 h turned out to be 119 µM.
Consider `COc1ccc(CSc2nc(C(C#N)c3c(Cl)cccc3Cl)c(C)c(=O)[nH]2)cc1` (stereo not drawn), for which the EC50 was above 48.8 µM in series [1], above 48.8 µM in series [3] and 0.19 µM in series [5]. Further, the IC50 in series [6] came to 0.23 µM. In addition, the selectivity ratio in series [2] came out at 252. For the same compound, the CC50 at 120 h in series [4] came to 48.8 µM.
`COc1ccc(CSc2nc(C(C#N)c3ccc(Br)cc3F)c(C)c(=O)[nH]2)cc1` (stereo not drawn): the selectivity ratio in series [2] was below 1. Further, the EC50 in series [3] and in series [5] was above 22.5 µM throughout. The half-maximal cytotoxic concentration (CC50) at 120 h in series [4] was 22.5 µM.
With `COc1ccc(CSc2nc(C(C#N)c3c(F)cccc3Cl)c(C)c(=O)[nH]2)cc1` (stereo not drawn), the EC50 is above 50.1 µM in series [1], above 50.1 µM in series [3] and 0.091 µM in series [5]. The IC50 in series [6] stood at 0.17 µM. The selectivity ratio in series [2] was 548. Besides, the cytotoxic concentration (CC50) at 120 h in series [4] was determined as 50.1 µM.
As for `COc1ccc(CSc2nc(C(C#N)c3ccc(F)cc3F)c(C)c(=O)[nH]2)cc1` (stereo not drawn), the half-maximal effective concentration (EC50) in series [1] is above 157 µM; in series [3], above 157 µM; in series [5], 20.7 µM. The selectivity ratio in series [2] came to 8. In addition, in series [4], the CC50 at 120 h stood at 157 µM.
Consider `COc1ccc(CSc2nc(C(C#N)c3cc(F)cc(F)c3)c(C)c(=O)[nH]2)cc1` (stereo not drawn), for which the 50% effective concentration (EC50) in series [1] is above 154 µM; in series [3], above 154 µM; in series [5], 21.3 µM. Besides, the selectivity ratio in series [2] came out at 7. For the same compound, in series [4], the half-maximal cytotoxic concentration (CC50) at 120 h was determined as 154 µM.
Regarding `CC(C)Nc1cccnc1N1CCN(C(=O)c2cc3cc(NS(C)(=O)=O)ccc3[nH]2)CC1` [DELAVIRDINE], the EC50 in series [1] was above 36.2 µM. In series [2], the selectivity ratio is above 338. In addition, the CC50 at 120 h in series [4] was above 36.2 µM.
As for `O=C1Nc2ccc(Cl)cc2[C@@](C#CC2CC2)(C(F)(F)F)O1` [EFAVIRENZ], the CC50 at 120 h in series [4] was above 6.34 µM.
Take `Cc1ccnc2c1NC(=O)c1cccnc1N2C1CC1` [NEVIRAPINE]: the CC50 at 120 h in series [4] was above 15 µM.
Take `Nc1ccn([C@H]2CC[C@@H](CO)O2)c(=O)n1` [ZALCITABINE]: in series [2], the selectivity ratio was above 169. In addition, the figures for the EC50 in series [3] and in series [5] were 1.61 µM and 0.57 µM, respectively. Moreover, the CC50 at 120 h in series [4] is above 94.7 µM.
For the compound `Cc1cn([C@H]2C[C@H](N=[N+]=[N-])[C@@H](CO)O2)c(=O)[nH]c1=O` [ZIDOVUDINE], the EC50 in series [1] is 0.0063 µM; in series [5] it was 0.0064 µM. The selectivity ratio in series [2] is above 14400. Moreover, in series [4], the 50% cytotoxic concentration (CC50) at 120 h is above 93.6 µM.
